Holding throughout (type): cell-based
In assay [1] the target is T1, SLC22A15 (Homo sapiens, UniProt Q8IZD6).
For a further assay, the target named is T2, SLC22A4 (Homo sapiens, UniProt Q9H015).
T2 sequence (Q9H015 1-551): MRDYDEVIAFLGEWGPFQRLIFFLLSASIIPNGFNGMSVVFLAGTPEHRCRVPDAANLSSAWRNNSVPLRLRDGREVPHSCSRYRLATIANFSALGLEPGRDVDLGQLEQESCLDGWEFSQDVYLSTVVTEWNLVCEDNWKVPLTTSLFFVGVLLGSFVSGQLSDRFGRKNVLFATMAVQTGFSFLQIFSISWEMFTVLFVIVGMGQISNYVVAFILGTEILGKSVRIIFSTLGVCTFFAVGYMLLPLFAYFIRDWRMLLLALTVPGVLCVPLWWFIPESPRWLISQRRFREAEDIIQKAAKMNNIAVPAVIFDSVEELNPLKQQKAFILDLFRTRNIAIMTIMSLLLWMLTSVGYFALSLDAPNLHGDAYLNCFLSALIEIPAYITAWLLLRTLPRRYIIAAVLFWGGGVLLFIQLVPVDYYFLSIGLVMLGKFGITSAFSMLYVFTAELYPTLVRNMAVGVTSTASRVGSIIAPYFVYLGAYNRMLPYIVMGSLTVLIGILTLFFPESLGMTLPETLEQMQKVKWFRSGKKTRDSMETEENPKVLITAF
In words: radiolabelled uptake in transfected HEK293 Flp-In cells.

For assay [2], the target named is T1, SLC22A15. The assay is described as above.

T1 sequence (Q8IZD6 whole entry): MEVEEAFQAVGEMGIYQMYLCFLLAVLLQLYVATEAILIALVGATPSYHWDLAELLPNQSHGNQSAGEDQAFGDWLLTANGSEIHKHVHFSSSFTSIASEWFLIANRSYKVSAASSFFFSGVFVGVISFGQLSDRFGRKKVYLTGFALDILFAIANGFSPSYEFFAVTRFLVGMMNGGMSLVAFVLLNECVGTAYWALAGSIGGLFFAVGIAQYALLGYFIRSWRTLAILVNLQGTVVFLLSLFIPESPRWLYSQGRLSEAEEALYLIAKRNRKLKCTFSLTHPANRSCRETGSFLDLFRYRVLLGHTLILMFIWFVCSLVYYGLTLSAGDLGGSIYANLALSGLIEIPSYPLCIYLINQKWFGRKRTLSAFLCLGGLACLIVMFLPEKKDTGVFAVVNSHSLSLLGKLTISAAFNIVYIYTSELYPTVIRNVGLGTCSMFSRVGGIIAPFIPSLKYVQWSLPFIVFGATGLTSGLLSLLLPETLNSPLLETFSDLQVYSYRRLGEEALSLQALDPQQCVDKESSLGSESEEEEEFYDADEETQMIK

The term IC50 denotes the concentration at which inhibition is half-maximal. Take `O=S(=O)(O)CCN1CCN(CCO)CC1` [HEPES, 4-(2-hydroxyethyl)-1-piperazineethanesulfonic acid]: the IC50 on SLC22A15 [1] was 5.8 ± 1.4 mM.

On to `C[N+](C)(C)[C@@H](Cc1c[nH]c(=S)[nH]1)C(=O)[O-]` [ergothioneine], for which the “radiolabelled uptake in transfected HEK293 Flp-In cells” value at SLC22A4 was “only SLC22A4 and SLC22A15 showed significant uptake of ergothioneine over EV cells (Fig. 3B)”.

Turning to `C[N+](C)(C)CC(=O)O` [betaine], the “radiolabelled uptake in transfected HEK293 Flp-In cells” value on SLC22A15 [2] was “highest fold-uptake over empty vector were the zwitterions: ergothioneine, carnosine and betaine”.
